Entries after “also recorded” stand apart in the source; their conditions may differ.
System: functional muscle tissue of human cardiac tissue
Assay: Cardiac field potentials of functional muscle tissue measured with flexible electrode array
Type: cell-based
Conditions: escalating doses of isoproterenol; cardiac field potentials detected by microelectrode array; FIG. 27, 28
Excerpt: A cell seeding well attached to a second portion of a fluidic device including a gelatin flexible substrate with a micropatterned top surface on a COC base was used to culture a functional muscle tissue of human cardiac tissue on the flexible substrate and to separately evaluate the functional muscle tissue prior to assembling the rest of the fluidic device. FIG. 26 is an image of the cell seeding well 400 attached to the second portion 192 of the fluidic device. The top of the cell seeding well 400 was wrapped in a gas permeable membrane. […] The cultured functional muscle tissue on the flexible substrate was exposed to escalating doses of isoproterenol, a beta-adrenergic agonist, and resulting cardiac field potentials were measured using the flexible electrode array. FIG. 27 is a graph of the measured cardiac field potentials 610, 620, […], 640, 650, 660, 670 as a function of time detected by the microelectrode array for various concentrations of isoproterenol. FIG. 28 is a graph of the measured QT interval shortening as a function of the dose of isoproterenol. […] Thus, the modular nature of the fluidic device enabled the flexible substrate on the second portion of the device to be easily seeded and cultured to form the functional muscle tissue, and enabled the functional muscle tissue to be evaluated prior to assembly of the full fluidic device.

SMILES: CC(C)NCC(O)c1ccc(O)c(O)c1 (stereo not shown) [isoproterenol]
- QT interval as a function of isoproterenol dose: shortening QT interval; also recorded: QT shortening with increased doses
